Test system: yeast genes (level of expressed mRNA)
Assay: DNA chip analysis of expressed mRNA of yeast genes after 2 h culture with a toxic chemical substance
Assay type: cell-based, Saccharomyces cerevisiae S288C
Outline: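 Values are treated-to-control fluorescence ratios from a whole-yeast-genome DNA chip (65° C, over 12 h hybridization) using Cy3/Cy5-labelled cDNA from mRNA. Log-phase S288C cells in YPD at 25° C were exposed 2 h to a toxicant at sublethal, growth-inhibiting concentration.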

HgCl2 [(3)] was tested, and the “The level of expressed mRNA in the presence of chemical substance/” value (yeast gene YNL074C, ratio to control without chemical substance, 2 h culture) was 1.8, the “The level of expressed mRNA in the presence of chemical substance/” value (yeast gene YNL092W, ratio to control without chemical substance, 2 h culture) was 2.4 and the “The level of expressed mRNA in the presence of chemical substance/The level of expressed mRNA in the absence of chemical substance” value (yeast gene YNL093W) was 0.4. The “The level of expressed mRNA in the presence of chemical substance/” value (yeast gene YNL115C, ratio to control without chemical substance, 2 h culture) was 1.6, the “The level of expressed mRNA in the presence of chemical substance/” value (yeast gene YNL156C, ratio to control without chemical substance, 2 h culture) was 0.9 and the “The level of expressed mRNA in the presence of chemical substance/” value (yeast gene YNL234W, ratio to control without chemical substance, 2 h culture) was 0.6. The “The level of expressed mRNA in the presence of chemical substance/” value (yeast gene YNL281W, ratio to control without chemical) was 2.0, the “The level of expressed mRNA in the presence of chemical substance/” value (yeast gene YNL305C, ratio to control without chemical) was 2.7 and the “The level of expressed mRNA in the presence of chemical substance/The level of expressed mRNA in the absence of chemical substance” value (yeast gene YNL333W) was 1.7. For the same substance, the “The level of expressed mRNA in the presence of chemical substance/The level of expressed mRNA in the absence of chemical substance” value (yeast gene YNR010W) was 0.5, the “The level of expressed mRNA in the presence of chemical substance/” value (yeast gene YNR068C, ratio to control without chemical) was 2.3 and the “The level of expressed mRNA in the presence of chemical substance/The level of expressed mRNA in the absence of chemical substance” value (yeast gene YNR069C) was 0.7. For the same substance, the “The level of expressed mRNA in the presence of chemical substance/in the absence of chemical substance” value (yeast gene YNR072W) was 0.5, the “The level of expressed mRNA in the presence of chemical substance/The level of expressed mRNA in the absence of chemical substance” value (yeast gene YOL013C) was 1.0 and the “The level of expressed mRNA in the presence of chemical substance/” value (yeast gene YOL032W, ratio to control without chemical) was 2.0. The “The level of expressed mRNA in the presence of chemical substance/” value (yeast gene YOL036W, ratio to control without chemical) was 1.3, the “The level of expressed mRNA in the presence of chemical substance/” value (yeast gene YOL047C, ratio to control without chemical) was 1.1 and the “The level of expressed mRNA in the presence of chemical substance/” value (yeast gene YOL071W, ratio to control without chemical) was 1.7. For the same substance, the “The level of expressed mRNA in the presence of chemical substance/” value (yeast gene YOL082W, ratio to control without chemical) was 1.6, the “The level of expressed mRNA in the presence of chemical substance/” value (yeast gene YOL083W, ratio to control without chemical) was 1.2 and the “The level of expressed mRNA in the presence of chemical substance/in the absence of chemical substance” value (yeast gene YOL096C) was 1.2. For the same substance, the “The level of expressed mRNA in the presence of chemical substance/” value (yeast gene YOL117W, ratio to control without chemical) was 0.5, the “The level of expressed mRNA in the presence of chemical substance/” value (yeast gene YOL131W, ratio to control without chemical) was 0.6 and the “The level of expressed mRNA in the presence of chemical substance/” value (yeast gene YOL150C, ratio to control without chemical substance, 2 h culture) was 9.9. For the same substance, the “The level of expressed mRNA in the presence of chemical substance/” value (yeast gene YOL162W, ratio to control without chemical) was 1.7, the “The level of expressed mRNA in the presence of chemical substance/The level of expressed mRNA in the absence of chemical substance” value (yeast gene YOL164W) was 1.0 and the “The level of expressed mRNA in the presence of chemical substance/” value (yeast gene YOR019W, ratio to control without chemical) was 0.8. For the same substance, the “The level of expressed mRNA in the presence of chemical substance/The level of expressed mRNA in the absence of chemical substance” value (yeast gene YOR036W) was 1.4, the “The level of expressed mRNA in the presence of chemical substance/The level of expressed mRNA in the absence of chemical substance” value (yeast gene YOR117W) was 1.7 and the “The level of expressed mRNA in the presence of chemical substance/The level of expressed mRNA in the absence of chemical substance” value (yeast gene YOR124C) was 1.3. The “The level of expressed mRNA in the presence of chemical substance/The level of expressed mRNA in the absence of chemical substance” value (yeast gene YOR132W) was 0.8, the “The level of expressed mRNA in the presence of chemical substance/The level of expressed mRNA in the absence of chemical substance” value (yeast gene YOR157C) was 1.2 and the “The level of expressed mRNA in the presence of chemical substance/in the absence of chemical substance” value (yeast gene YOR180C) was 1.0. For the same substance, the “The level of expressed mRNA in the presence of chemical substance/The level of expressed mRNA in the absence of chemical substance” value (yeast gene YOR181W) was 1.1, the “The level of expressed mRNA in the presence of chemical substance/The level of expressed mRNA in the absence of chemical substance” value (yeast gene YOR185C) was 1.9 and the “The level of expressed mRNA in the presence of chemical substance/” value (yeast gene YOR197W, ratio to control without chemical) was 1.1. For the same substance, the “The level of expressed mRNA in the presence of chemical substance/The level of expressed mRNA in the absence of chemical substance” value (yeast gene YOR198C) was 1.4, the “The level of expressed mRNA in the presence of chemical substance/The level of expressed mRNA in the absence of chemical substance” value (yeast gene YOR259C) was 0.8 and the “The level of expressed mRNA in the presence of chemical substance/The level of expressed mRNA in the absence of chemical substance” value (yeast gene YOR261C) was 0.6. For the same substance, the “The level of expressed mRNA in the presence of chemical substance/The level of expressed mRNA in the absence of chemical substance” value (yeast gene YOR288C) was 1.1, the “The level of expressed mRNA in the presence of chemical substance/The level of expressed mRNA in the absence of chemical substance” value (yeast gene YOR355W) was 1.1 and the “The level of expressed mRNA in the presence of chemical substance/in the absence of chemical substance” value (yeast gene YOR363C) was 0.9. The “The level of expressed mRNA in the presence of chemical substance/The level of expressed mRNA in the absence of chemical substance” value (yeast gene YOR383C) was 2.6, the “The level of expressed mRNA in the presence of chemical substance/” value (yeast gene YPL087W, ratio to control without chemical) was 3.0 and the “The level of expressed mRNA in the presence of chemical substance/The level of expressed mRNA in the absence of chemical substance” value (yeast gene YPL089C) was 0.5. For the same substance, the “The level of expressed mRNA in the presence of chemical substance/The level of expressed mRNA in the absence of chemical substance” value (yeast gene YPL109C) was 0.5, the “The level of expressed mRNA in the presence of chemical substance/The level of expressed mRNA in the absence of chemical substance” value (yeast gene YPL149W) was 0.6 and the “The level of expressed mRNA in the presence of chemical substance/The level of expressed mRNA in the absence of chemical substance” value (yeast gene YPL154C) was 4.2. For the same substance, the “The level of expressed mRNA in the presence of chemical substance/” value (yeast gene YPL196W, ratio to control without chemical) was 1.3, the “The level of expressed mRNA in the presence of chemical substance/” value (yeast gene YPL206C, ratio to control without chemical) was 1.4 and the “The level of expressed mRNA in the presence of chemical substance/” value (yeast gene YPL222W, ratio to control without chemical) was 0.8. For the same substance, the “The level of expressed mRNA in the presence of chemical substance/” value (yeast gene YPR023C, ratio to control without chemical) was 1.2, the “The level of expressed mRNA in the presence of chemical substance/The level of expressed mRNA in the absence of chemical substance” value (yeast gene YPR103W) was 1.3 and the “The level of expressed mRNA in the presence of chemical substance/The level of expressed mRNA in the absence of chemical substance” value (yeast gene YPR108W) was 1.3. The “The level of expressed mRNA in the presence of chemical substance/” value (yeast gene YPR151C, ratio to control without chemical) was 1.5 and the “The level of expressed mRNA in the presence of chemical substance/in the absence of chemical substance” value (yeast gene YPR184W) was 5.7.
